Laboratory results: PubChem BioAssay (NCI)
Where “and” joins values, the source holds several entries; their conditions need not be identical. Identical values can stand only once.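 A five-concentration, 48-hour dose response in 96-well plates underlies each endpoint, interpolated linearly between surrounding concentrations. Abbreviation: GI50, concentration required for 50% inhibition of growth. TGI: total growth inhibition.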 *1 amine or outer side, *2 acyl side, *3 side chain or, on linkers, in order; H or OH if unused. Where a SMILES comes first, the peptide text is derived from it. Bridges are numbered along the chain shown (N, C = ends). Roman numbers before positions name the chains, in order. [ ]: non-standard residue; d: D form. Actinocin(9to1) = Cc1c2oc3c(C)ccc(C(=O)[*:1])c3nc-2c(C(=O)[*:2])c(N)c1=O; NMeT = CN[CH](C(=O)O)[CH](C)O; Sar = CNCC(=O)O

What was measured:
Assay in all cases: growth of human tumour cells (NCI), 48 h
MALME-3M melanoma = tested on: MALME-3M melanoma
RXF 393 renal = tested on: RXF 393 renal
NCI/ADR-RES ovarian = tested on: NCI/ADR-RES ovarian
UACC-257 melanoma = tested on: UACC-257 melanoma
SW-620 colon = tested on: SW-620 colon
OVCAR-3 ovarian = tested on: OVCAR-3 ovarian
786-0 renal = tested on: 786-0 renal
A498 renal = tested on: A498 renal
RPMI-8226 leukemia = tested on: RPMI-8226 leukemia
SF-539 CNS = tested on: SF-539 CNS

Row | Compound | TGI (MALME-3M melanoma) | TGI (RXF 393 renal) | TGI (NCI/ADR-RES ovarian) [µM] | TGI (UACC-257 melanoma) | TGI (SW-620 colon) | TGI (OVCAR-3 ovarian) | TGI (786-0 renal) [µM] | TGI (A498 renal) | TGI (RPMI-8226 leukemia) | TGI (SF-539 CNS) | GI50 (MALME-3M melanoma) | GI50 (RXF 393 renal) [µM] | GI50 (NCI/ADR-RES ovarian) | GI50 (UACC-257 melanoma) | GI50 (SW-620 colon) [µM] | GI50 (OVCAR-3 ovarian) | GI50 (786-0 renal) | GI50 (A498 renal) | GI50 (RPMI-8226 leukemia) [µM] | GI50 (SF-539 CNS) [µM]
1 | Cc1cc(=O)oc2c(C)c(O)ccc12 | > 100 µM | > 100 µM | > 100 | > 100 µM | > 100 µM | > 100 µM | > 100 | > 100 µM | > 100 µM | > 100 µM |  |  |  |  |  |  |  |  |  | 
2 | CC(=O)N1C/C(=C/c2ccc(Cl)cc2)C(=O)/C(=C/c2ccc(Cl)cc2)C1 | 4.14 µM | 1.61 µM | 12.6 | 2.97 µM | 0.981 µM | 1.79 µM | 1.87 | 2.89 µM | 0.463 µM | 2.03 µM | 1.94 µM | 0.546 | 2.56 µM | 1.52 µM | 0.297 | 0.583 µM | 0.575 µM | 1.41 µM | 0.0889 | 0.785
3 | CCOC(=O)NC1C2CC(=O)OC(O2)C1OC(C)=O (configuration not stated) | > 100 µM | > 100 µM | > 100 | > 100 µM | > 100 µM | > 100 µM | > 100 | > 100 µM | > 100 µM | > 100 µM |  |  | > 100 µM |  |  |  |  |  |  | 
4 | Cc1c2oc3c(C)ccc(C(=O)NC4C(=O)NC(C(C)C)C(=O)N5CCCC5C(=O)N(C)CC(=O)N(C)C(C(C)O)C(=O)OC4C)c3nc-2c(C(=O)NC2C(=O)NC(C(C)C)C(=O)N3CCCC3C(=O)N(C)CC(=O)N(C)C(C(C)O)C(=O)OC2C)c(N)c1=O (configuration not stated) (I: TVP[Sar][NMeT] / II: TVP[Sar][NMeT]; ester I:1-I:C, II:1-II:C; linker I:N-II:N via Actinocin(9to1); configuration not given here) | 6.05 µM and > 1 µM | 2.95 µM and > 1 µM | > 100 | 25.1 µM and > 1 µM | 43.4 µM and > 1 µM | 16.6 µM and > 1 µM | > 100 | 2.33 µM and > 1 µM | 10.6 µM and > 1 µM | 18 µM and > 1 µM | 0.0949 µM and 0.729 µM |  | 25.9 µM and > 1 µM | 2.09 µM and > 1 µM |  | 2.23 µM and > 1 µM | 1.25 µM and 0.61 µM | 0.327 µM and > 1 µM |  | 
5 | CNC/C(Cl)=N/S(=O)(=O)c1ccc(C)cc1 | 27.5 µM | 9.34 µM | > 100 | 25.4 µM | > 100 µM | 25.5 µM | 25.2 | 54.4 µM | 33.5 µM | 39.7 µM |  |  |  |  |  |  |  |  |  | 
6 | COc1ccc(NC([Se])=NC23CC4CC(CC(C4)C2)C3)cc1 | 3.74 µM | 4.72 µM | 8.88 | 5.44 µM | 6.45 µM | 3.21 µM | 4.22 | 4.75 µM | 3.8 µM | 4.19 µM | 0.653 µM | 1.8 | 0.711 µM | 2.03 µM | 1.51 | 1.39 µM | 1.78 µM | 1.32 µM | 0.845 | 1.89
7 | c1cc(N2CCCN(c3ccc(C4=NCCCN4)cc3)CC2)ccc1C1=NCCCN1 | > 100 µM | > 100 µM | > 100 | > 100 µM | > 100 µM | > 100 µM | > 100 | > 100 µM | > 100 µM | > 100 µM | > 100 µM | > 100 | > 100 µM | > 100 µM | > 100 | > 100 µM | > 100 µM | 2.72 µM | > 100 | 59.4
8 | Cc1cc(O)cc2c1[C@]1(C)CCC3C(C)(C)CCC[C@]3(C)[C@H]1C2 (some centres not stated) | 39.4 µM | 50.4 µM | 39.8 | 41.3 µM | 33.6 µM | 33.5 µM | 34.3 | 39.1 µM | 74.7 µM | 37.9 µM | 23.2 µM | 25 | 21.4 µM | 23.6 µM | 18.5 | 19.2 µM | 19.4 µM | 23.2 µM | 29.6 | 20.6
9 | O=c1cc(N2CCN(CCCCCOc3cc(O)c4c(=O)cc(-c5ccccc5)oc4c3)CC2)c2ccccc2o1 | > 100 µM | > 100 µM | > 100 | > 100 µM | > 100 µM | > 100 µM | > 100 | > 100 µM | > 100 µM | > 100 µM | 39.2 µM | > 100 | 74.2 µM | > 100 µM | > 100 | > 100 µM | 6.92 µM | > 100 µM | 12.4 | 35.6
10 | C[C@]12CC[C@@H]3c4cc(-c5ccc(F)cc5)c(O)cc4CC[C@H]3[C@@H]1CC[C@@H]2O | 22 µM | 5.9 µM | 65.9 | 29.6 µM | 21.8 µM | 20.9 µM | 27.7 | 12.2 µM | 16.5 µM | 22.9 µM | 10.1 µM | 2.66 | 6.95 µM | 15.3 µM | 10.1 | 4.02 µM | 11.9 µM | 3.39 µM | 2.78 | 9.42
